# Results published in US20100298299A1, “NON-PEPTIDE DERIVATIVES AS BRADYKININ B1 ANTAGONISTS” (priority 2007, published 2010).
# Key:
# [1] = biological target: T1, recombinant human B1 receptors (Homo sapiens, UniProt P46663); assay: Functional assay: antagonist potency by cytosolic calcium measurement in CHO-B1 cells; format: cell-based; conditions: CHO-B1 cells, inhibition of LysDABK (EC80)-evoked [Ca2+]i elevation; read-out: B1 func.
# T1 construct: host or cells: CHO (CHO-B1)
# T1 sequence (P46663 1-353): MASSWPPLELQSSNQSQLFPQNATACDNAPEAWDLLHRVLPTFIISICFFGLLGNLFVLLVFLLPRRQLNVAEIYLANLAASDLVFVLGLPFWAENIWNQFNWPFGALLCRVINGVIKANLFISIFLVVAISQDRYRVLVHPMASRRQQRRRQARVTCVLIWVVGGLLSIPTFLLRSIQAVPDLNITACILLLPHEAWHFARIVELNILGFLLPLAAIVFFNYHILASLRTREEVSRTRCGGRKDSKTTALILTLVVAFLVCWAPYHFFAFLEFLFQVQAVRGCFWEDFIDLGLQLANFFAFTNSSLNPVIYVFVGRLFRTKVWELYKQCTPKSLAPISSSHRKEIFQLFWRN
# Method: Assessment of Antagonist Potency at B1 and B2 Receptors In Vitro by Measurement of Cytosolic Calcium Ion Concentration with a Plate Reader Fluorimeter in Cells Expressing Recombinant Human B1 or B2 Receptors
# Chinese hamster ovary (CHO) cells stably expressing recombinant human B1 (CHO-B1, Euroscreen) or B2 (CHO-B2, Perkin-Elmer) receptors were cultured in Dulbecco's Modified Eagle's Medium (DMEM) containing 10% Fetal Calf Serum (FCS), 100 U/ml penicillin, 0.1 mg/ml streptomycin, 0.25 μg/ml amphotericin B, 1% Minimum Essential Medium Eagle (MEM), non essential amino acid solution, 600 μg/ml G418, 1% pyruvate (for the B2 cell line). Cells were kept at 37° C. in a humidified incubator in an atmosphere of 5% CO2/95% air and were passaged 1:4 three times a week. Cells were plated at 1.5−2.5×10^4 cell/well on standard 96-well microplates, measurements of cytosolic calcium ion concentration ([Ca^2+]i) were carried out 1-2 days after cell plating.
# Measurements of [Ca^2+]i were carried out on CHO-B1 and CHO-B2 cells stably expressing human B1 and B2 receptors, respectively. Cells were grown in standard 96-well microplates and before the measurement were loaded with a fluorescent Ca^2+-sensitive dye, fluo-4/AM (2 μM): after removing the culture medium the dye was added to the cells (dissolved in assay buffer: 145 mM NaCl, 5 mM KCl, 2 mM MgCl2, 2 mM CaCl2, 10 mM HEPES, 20 mM D-glucose, 2 mM probenecid, 100 μl/well) and cells were incubated at 37° C. in a humidified incubator in an atmosphere of 5% CO2/95% air for 40-120 min. To stop dye loading cells were washed twice with assay buffer. After washing, various concentrations of the test compounds (diluted in extracellular medium from a DMSO stock solution, final DMSO concentration was <0.1%) or buffer were added to each well depending on the experimental setup. After incubation at 37° C. for 20-25 min. baseline and agonist-evoked changes of [Ca^2+]i were measured column by column with a plate reader fluorimeter (Fluoroskan Ascent, Labsystems). Excitation and detection of emission was carried out from the bottom of the plate. Filters used for Fluo-4: excitation filter—485 nm, emission filter—538 nm. The whole measurement process was performed at 37° C. and was controlled by custom software. Inhibitory potency of the test compounds was assessed by measuring the reduction in the agonist-evoked [Ca^2+]i-elevation in the presence of different concentrations of the compounds. The agonists were LysDABK for CHO-B1, and bradykinin for CHO-B2 cells. Agonists were applied at an EC80 concentration, the EC80-values were derived from daily determined dose-response curves. Fluorescence data were expressed as ΔF/F (fluorescence change normalized to baseline). All treatments on a single plate were measured in multiple wells. Data from all wells with the same treatment were averaged and the average values were used for analysis. Inhibitory potency of a compound at a single concentration point was expressed as percent inhibition of the control agonist response. Sigmoidal concentration-inhibition curves were fitted to the data (derived from at least three independent experiments) and IC50-values were determined as the concentration that produces half of the maximal inhibition caused by the compound.
# [2] = biological target: T2, human recombinant bradykinin B1 receptor (Homo sapiens, UniProt P46663); assay: Human recombinant bradykinin B1 receptor binding; conditions: CHO cell membranes, [3H]-[Des-Arg10] Kallidin radioligand; read-out: B1 binding
# T2 construct: purchased Euroscreen ES-091; host or cells: CHO cells
# T2 sequence (P46663 1-353): T1 sequence (P46663 1-353)
# Method: 1. Human Recombinant Bradykinin B1 Receptor Binding
# Binding assays were carried out on human recombinant bradykinin) receptors (expressed in CHO cells) according to the Euroscreen Technical Data Sheet (Cat. No.: ES-091). 20 μg protein/tube was incubated with [3,4-prolyl-3,4-^3H(N)]-[Des-Arg^10] Kallidin as radioligand. Non specific binding was determined in the presence of 10 μM Lys-des-Arg^9-Bradykinin. The final incubation volume was 250 μl. Samples were incubated for 15 min. at 25° C. then were rapidly vacuum filtered through GF/B filters presoaked for at least 1 h in 0.5% PEI. Radioactivity was determined by liquid scintillation spectroscopy.
IC50 [1],Ki [2],Structure (SMILES)
< 20 nM,< 20 nM,"C[C@@H](NC(=O)c1ccc(S(=O)(=O)Nc2ccccc2Oc2ccccc2)cc1)C(=O)N1CCC(CCN2CCCC2)CC1 [Example 1, (R)—N-{1-Methyl-2-oxo-2-[4-(2-pyrrolidin-1-yl-ethyl)-piperidin-1-yl]-ethyl}-4-(2-phenoxy-phenylsulfamoyl)-benzamide]"
< 20 nM,< 20 nM,"O=C(NCC(=O)N1CCC(CCN2CCCC2)CC1)c1ccc(S(=O)(=O)Nc2ccccc2Sc2ccccc2)cc1 [Example 2, N-{2-oxo-2-[4-(2-pyrrolidin-1-yl-ethyl)-piperidin-1-yl]-ethyl}-4-(2-phenylsulfanyl-Phenylsulfamoyl)-benzamide]"
< 20 nM,< 20 nM,"O=C(NCC(=O)N1CCC(N2CCCC2)CC1)c1ccc(S(=O)(=O)Nc2ccccc2Sc2ccccc2)cc1 [Example 3, N-[2-Oxo-2-(4-pyrrolidin-1-yl-piperidin-1-yl)-ethyl]-4-(2-phenylsulfanyl-phenylsulfamoyl)-benzamide]"
20 to 100 nM,20 to 100 nM,"CN(C)CCN1CCN(C(=O)CNC(=O)c2ccc(S(=O)(=O)Nc3ccccc3Sc3ccccc3)cc2)CC1 [Example 4, N-{2-[4-(2-Dimethylamino-ethyl)-piperazin-1-yl]-2-oxo-ethyl}-4-(2-phenylsulfanyl-phenylsulfamoyl)-benzamide]"
20 to 100 nM,20 to 100 nM,"O=C(NCC(=O)N1CCN(CCCN2CCCC2)CC1)c1ccc(S(=O)(=O)Nc2ccccc2Sc2ccccc2)cc1 [Example 5, N-{2-Oxo-2-[4-(3-pyrrolidin-1-yl-propyl)-piperazin-1-yl]-ethyl}-4-(2-phenylsulfanyl-phenylsulfamoyl)-benzamide]"
20 to 100 nM,20 to 100 nM,"CN(C)CCCN1CCN(C(=O)CNC(=O)c2ccc(S(=O)(=O)Nc3ccccc3Sc3ccccc3)cc2)CC1 [Example 6, N-{2-[4-(3-Dimethylamino-propyl)-piperazin-1-yl]-2-oxo-ethyl}-4-(2-phenylsulfanyl-phenylsulfamoyl)-benzamide]"
20 to 100 nM,20 to 100 nM,"O=C(NCC(=O)N1CCCN(CCCN2CCCC2)CC1)c1ccc(S(=O)(=O)Nc2ccccc2Sc2ccccc2)cc1 [Example 7, N-{2-Oxo-2-[4-(3-pyrrolidin-1-yl-propyl)-[1,4]diazepan-1-yl]-ethyl}-4-(2-phenylsulfanyl-phenylsulfamoyl)-benzamide]"
20 to 100 nM,20 to 100 nM,"CN1CCCC(CN2CCN(C(=O)CNC(=O)c3ccc(S(=O)(=O)Nc4ccccc4Sc4ccccc4)cc3)CC2)C1 (centres unmarked) [Example 8, N-{2-[4-(1-Methyl-piperidin-3-ylmethyl)-piperazin-1-yl]-2-oxo-ethyl}-4-(2-phenylsulfanyl-phenylsulfamoyl)-benzamide]"
20 to 100 nM,20 to 100 nM,"O=C(NCC(=O)N1CCN(CCN2CCOCC2)CC1)c1ccc(S(=O)(=O)Nc2ccccc2Sc2ccccc2)cc1 [Example 9, N-{2-[4-(2-Morpholin-4-yl-ethyl)-piperazin-1-yl]-2-oxo-ethyl}-4-(2-phenylsulfanyl-phenylsulfamoyl)-benzamide]"
< 20 nM,< 20 nM,"C[C@H](NC(=O)c1ccc(S(=O)(=O)Nc2ccccc2Oc2ccccc2)cc1)C(=O)N1CCC(CCN2CCCC2)CC1 [Example 26, (S)—N-{1-Methyl-2-oxo-2-[4-(2-pyrrolidin-1-yl-ethyl)-piperidin-1-yl]-ethyl}-4-(2-phenoxy-phenylsulfamoyl)-benzamide]"
< 20 nM,< 20 nM,"O=C(N[C@H](CO)C(=O)N1CCC(CCN2CCCC2)CC1)c1ccc(S(=O)(=O)Nc2ccccc2Oc2ccccc2)cc1 [Example 27, (R)—N-{1-Hydroxymethyl-2-oxo-2-[4-(2-pyrrolidin-1-yl-ethyl)-piperidin-1-yl]-ethyl}-4-(2-phenoxy-phenylsulfamoyl)-benzamide]"
< 20 nM,< 20 nM,"O=C(N[C@H](Cc1ccc(O)cc1)C(=O)N1CCC(O)CC1)c1ccc(S(=O)(=O)Nc2ccccc2Oc2ccccc2)cc1 [Example 29, (R)—N-[1-(4-Hydroxy-benzyl)-2-(4-hydroxy-piperidin-1-yl)-2-oxo-ethyl]-4-(2-phenoxy-phenylsulfamoyl)-benzamide]"
< 20 nM,< 20 nM,"O=C(N[C@H](Cc1ccc(O)cc1)C(=O)N1CCC(CO)CC1)c1ccc(S(=O)(=O)Nc2ccccc2Oc2ccccc2)cc1 [Example 30, (R)—N-[1-(4-Hydroxy-benzyl)-2-(4-hydroxymethyl-piperidin-1-yl)-2-oxo-ethyl]-4-(2-phenoxy-phenylsulfamoyl)-benzamide]"
< 20 nM,< 20 nM,"O=C(N[C@H](Cc1ccc(O)cc1)C(=O)N1CCC(CCN2CCCC2)CC1)c1ccc(S(=O)(=O)Nc2ccccc2Oc2ccccc2)cc1 [Example 31, (R)—N-{1-(4-Hydroxy-benzyl)-2-oxo-2-[4-(2-pyrrolidin-1-yl-ethyl)-piperidin-1-yl]-ethyl}-4-(2-phenoxy-phenylsulfamoyl)-benzamide]"
< 20 nM,< 20 nM,"O=C(N[C@@H](Cc1ccc(O)cc1)C(=O)N1CCC(CCN2CCCC2)CC1)c1ccc(S(=O)(=O)Nc2ccccc2Oc2ccccc2)cc1 [Example 32, (S)—N-{1-(4-Hydroxy-benzyl)-2-oxo-2-[4-(2-pyrrolidin-1-yl-ethyl)-piperidin-1-yl]-ethyl}-4-(2-phenoxy-phenylsulfamoyl)-benzamide]"
< 20 nM,< 20 nM,"O=C(N[C@@H](Cc1ccc(O)cc1)C(=O)N1CCC(N2CCCC2)CC1)c1ccc(S(=O)(=O)Nc2ccccc2Oc2ccccc2)cc1 [Example 33, (S)—N-[1-(4-Hydroxy-benzyl)-2-oxo-2-(4-pyrrolidin-1-yl-piperidin-1-yl)-ethyl]-4-(2-phenoxy-phenylsulfamoyl)-benzamide]"
< 20 nM,< 20 nM,"O=C(N[C@@H](Cc1ccc(O)cc1)C(=O)N1CCC(O)CC1)c1ccc(S(=O)(=O)Nc2ccccc2Oc2ccccc2)cc1 [Example 34, (S)—N-[1-(4-Hydroxy-benzyl)-2-(4-hydroxy-piperidin-1-yl)-2-oxo-ethyl]-4-(2-phenoxy-phenylsulfamoyl)-benzamide]"
< 20 nM,< 20 nM,"O=C(N[C@@H](Cc1ccc(O)cc1)C(=O)N1CCC(CCO)CC1)c1ccc(S(=O)(=O)Nc2ccccc2Oc2ccccc2)cc1 [Example 35, (S)—N-{1-(4-Hydroxy-benzyl)-2-[4-(2-hydroxy-ethyl)-piperidin-1-yl]-2-oxo-ethyl}-4-(2-phenoxy-phenylsulfamoyl)-benzamide]"
< 20 nM,< 20 nM,"CN1CCC(N2CCN(C(=O)[C@H](Cc3ccc(O)cc3)NC(=O)c3ccc(S(=O)(=O)Nc4ccccc4Oc4ccccc4)cc3)CC2)CC1 [Example 37, (S)—N-{1-(4-Hydroxy-benzyl)-2-[4-(1-methyl-piperidin-4-yl)-piperazin-1-yl]-2-oxo-ethyl}-4-(2-phenoxy-phenylsulfamoyl)-benzamide]"
